This is an account of results in patent US8258158B2 (Hoffmann-La Roche Inc., priority 2009, dated 2012).

Each structure is given as a SMILES string. pIC50: −log10 of the molar value.

The target of the test is T1, human HSL (Homo sapiens, UniProt Q05469).
T1 construct: overlapping PCR to generate a full length human HSL ORF with a 3′-His6 tag; His6 (C); made in house; host or cells: High 5 insect cells (baculovirus, pFast-BAC)
T1 sequence (Q05469 1-1076): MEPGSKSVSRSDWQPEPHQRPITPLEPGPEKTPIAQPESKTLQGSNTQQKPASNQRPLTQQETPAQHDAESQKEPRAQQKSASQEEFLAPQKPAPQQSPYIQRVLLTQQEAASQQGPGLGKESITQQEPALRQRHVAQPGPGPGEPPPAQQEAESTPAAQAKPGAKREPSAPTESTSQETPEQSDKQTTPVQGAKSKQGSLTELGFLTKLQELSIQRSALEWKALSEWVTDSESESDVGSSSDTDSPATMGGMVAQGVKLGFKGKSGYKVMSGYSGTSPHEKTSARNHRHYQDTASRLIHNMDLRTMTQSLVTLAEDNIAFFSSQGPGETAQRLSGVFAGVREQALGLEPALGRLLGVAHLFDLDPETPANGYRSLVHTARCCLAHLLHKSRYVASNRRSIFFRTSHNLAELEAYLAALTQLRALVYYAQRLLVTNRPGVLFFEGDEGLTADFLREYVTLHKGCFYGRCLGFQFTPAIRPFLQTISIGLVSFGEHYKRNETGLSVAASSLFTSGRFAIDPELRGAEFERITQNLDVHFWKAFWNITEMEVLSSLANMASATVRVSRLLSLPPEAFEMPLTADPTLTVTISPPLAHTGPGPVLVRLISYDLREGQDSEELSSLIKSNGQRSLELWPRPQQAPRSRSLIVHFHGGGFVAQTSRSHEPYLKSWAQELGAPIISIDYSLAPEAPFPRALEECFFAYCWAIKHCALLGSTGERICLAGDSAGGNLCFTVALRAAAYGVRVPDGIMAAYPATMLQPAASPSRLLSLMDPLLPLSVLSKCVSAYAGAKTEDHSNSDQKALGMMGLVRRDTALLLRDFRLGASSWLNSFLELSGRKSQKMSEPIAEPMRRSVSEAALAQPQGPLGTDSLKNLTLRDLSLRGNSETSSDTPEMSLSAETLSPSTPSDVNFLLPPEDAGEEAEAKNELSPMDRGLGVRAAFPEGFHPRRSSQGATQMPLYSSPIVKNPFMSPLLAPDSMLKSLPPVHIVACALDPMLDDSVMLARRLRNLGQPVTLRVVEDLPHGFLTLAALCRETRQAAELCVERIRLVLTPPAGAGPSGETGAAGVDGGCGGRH
The experiment in a line: Human hormone-sensitive lipase (HSL) enzyme inhibition assay (colorimetric, DMPT substrate). The class given is biochemical. The conditions noted are these: human full length HSL-His6; 2,3-dimercapto-1-propanol tributyrate substrate; 37° C., 20 minutes; read-out: HSL hum IC50. The protocol:
Production of Human Full Length Hormone Sensitive Lipase-His^6:
1) Cloning: cDNA was prepared from commercial human brain polyA+ RNA and used as a template in overlapping PCR to generate a full length human HSL ORF with a 3′-His6 tag. This full length insert was cloned into the pFast-BAC vector and the DNA-sequence of several single clones was verified. DNA from a correct full length clone with the 3′His6 tag was used to transform the E. coli strain DH10BAC. Resulting bacmid DNA was used to generate a titered baculovirus stock for protein generation. The sequence of the encoded HSL conforms to Swissprot entry Q05469, with the additional C-terminal His6-tag.
2) Protein purification: Culture: 5.5 L, High 5 cells expressing human full length HSL-His^6, 48 hr., containing 25 μM E-64. Cell count: […], 90% viable. Cells were thawed. On ice, cells were suspended in Base Buffer containing 10% glycerol, 25 mM Tris-Cl, 300 mM NaCl, 10 mM imidazole, 10 mM 2-mercaptoethanol, 2 μg pepstatin/ml, 2 μg leupeptin/ml, 2 μg antipain/ml, pH 8.0 at 4° C. in a final volume of 475 ml with 3.75×10^7 cells/ml. […] was done at 3×30 sec., Lubrol PX was added to 0.2% final concentration followed by stirring for 15 min. at 4° C. and centrifugation at 25 k×g, 60 min., 4° C. Soluble proteins were mixed with 60 ml of pre-washed and equilibrated Ni-NTA Agarose (Qiagen 30210) followed by tumbling end-over-end, 45 min., 4° C., centrifugation 1000 rpm 5 min and letting resin settle 5 min. Supernatant was removed, the resin washed in the centrifuge vessel using 5 volumes of Base Buffer containing 0.2% Lubrol PX. Centrifugation was done again, then the supernatant discarded. The resin was poured onto a 0.8 μm membrane in a disposable filter unit (Nalge 450-0080), and washed with 5 volumes of Base Buffer containing 0.2% Lubrol PX. It was then washed with 30 volumes of Base Buffer containing 60 mM imidazole pH 7.5 at 4° C. The protein was eluated with 5 volumes of 25 mM Tris-Cl, 300 mM NaCl, 200 mM imidazole, 10 mM 2-mercaptoethanol, pH 7.5 at 4° C. by tumbling resin with buffer end-over-end, 30 min., 4° C. The resin was captured on a 0.2 μm membrane disposable filter unit (Millipore SCGP U02 RE) and the eluate collected in the reservoir. The eluate was concentrated using a 30 k MWCO centrifugal filter device (Sartorius Vivascience Vivacell 100, VC1022), to 20 ml. It was then dialyzed overnight at 4° C., two times against 2 L of 10% glycerol, 25 mM Tris-Cl, 300 mM NaCl, 0.2 mM EDTA, 0.2 mM DTT, pH 7.5 at 4° C. The protein was filtered using a 0.22 μm disposable filter unit (Millipore SCGP00525). The protein concentration was calculated from absorbance at 280 nm, using 280=0.67 cm-1 mg-1. Yield was 235 mg, total. The protein was stored at −80° C.
Human Hormone-Sensitive Lipase (HSL) Enzyme Inhibition Assay:
HSL enzyme activity was measured by a colorimetric assay using 2,3-dimercapto-1-propanol tributyrate (Aldrich, St. Louis, Mo.) as a substrate. Typically, 1.5 mM 2,3-dimercapto-1-propanol tributyrate (DMPT) in 100 mM MOPS, pH 7.2, 0.2 mg/ml fatty acid-free BSA was prepared by sonication at 4° C. to homogenous suspension. Test compounds (2 mM stock in DMSO) were diluted 3 fold in series in DMSO. Compound solutions were diluted 24 fold in 1.5 mM DMPT containing solution and 18 ul per well was added to 384-well microplates (Corning Costar). Twelve microliters per well of human HSL (15 ug/ml) was added and the reaction mixture was incubated at 37° C. for 20 minutes. Six microliters of 12 mM dithio-bis-(2-nitrobenzoic acid) (DTNB) in DMSO plus 1.2% SDS and 0.6% Triton X-100 were added and the mixture was incubated at room temperature for 15 minutes. Product production was monitored by reading absorbance at 405 nm on an Envision Reader (PerkinElmer Life and Analytical Sciences, Shelton, Conn.).
For the molecule `Cc1ccc(S(=O)(=O)N2CCC(C(=O)Nc3ccc4c(c3)CCO4)CC2)cc1` [Example 17, 1-(Toluene-4-sulfonyl)-piperidine-4-carboxylic acid (2,3-dihydro-benzofuran-5-yl)-amide], the pIC50 was 6.11. In the case of `Cc1ccc(S(=O)(=O)N2CCC(F)(C(=O)Nc3ccc(OC(F)(F)F)cc3)CC2)cc1` [Example 18, 4-Fluoro-1-(toluene-4-sulfonyl)-piperidine-4-carboxylic acid (4-trifluoromethoxy-phenyl)-amide], the negative logarithm of the IC50 (pIC50) is 6.26.

`Cc1ccc(S(=O)(=O)N2CCC(F)(C(=O)Nc3ccc(OC(C)C)cc3)CC2)cc1` [Example 19, 4-Fluoro-1-(toluene-4-sulfonyl)-piperidine-4-carboxylic acid (4-isopropoxy-phenyl)-amide]: the pIC50 was 6.13. For `Cc1ccc(S(=O)(=O)N2CCC(C(=O)Nc3ccc(OCC4CC4)cc3)CC2)cc1` [Example 20, 1-(Toluene-4-sulfonyl)-piperidine-4-carboxylic acid (4-cyclopropylmethoxy-phenyl)-amide], the negative-log IC50 (pIC50) was 6.77. The result for `CC(C)(C)CC(=O)N1CCC(C(=O)Nc2ccc(OC(F)(F)F)cc2)CC1` [Example 21, 1-(3,3-Dimethyl-butyryl)-piperidine-4-carboxylic acid (4-trifluoromethoxy-phenyl)-amide] reads 6.70; that for `Cc1ccc(S(=O)(=O)N2CCC(C(=O)Nc3ccc(CCO)cc3)CC2)cc1` [Example 22, 1-(Toluene-4-sulfonyl)-piperidine-4-carboxylic acid [4-(2-hydroxy-ethyl)-phenyl]-amide], 6.15. Then `O=C(Nc1ccc(OC(F)(F)F)cc1)C1(CO)CCN(S(=O)(=O)c2ccccc2)CC1` [Example 26, 1-Benzenesulfonyl-4-hydroxymethyl-piperidine-4-carboxylic acid (4-trifluoromethoxy-phenyl)-amide], with 6.66; and `O=C(Nc1ccc(OC(F)(F)F)cc1)C1(CO)CCN(S(=O)(=O)c2ccccc2Cl)CC1` [Example 28, 1-(2-Chloro-benzenesulfonyl)-4-hydroxymethyl-piperidine-4-carboxylic acid (4-trifluoromethoxy-phenyl)-amide], with 6.18; and `COc1ccc(S(=O)(=O)N2CCC(F)(C(=O)Nc3ccc(OC(F)(F)F)cc3)CC2)cc1` [Example 29, 4-Fluoro-1-(4-methoxy-benzenesulfonyl)-piperidine-4-carboxylic acid (4-trifluoromethoxy-phenyl)-amide], with 6.55.

For the molecule `O=C(Nc1ccc(OC(F)(F)F)cc1)C1(F)CCN(S(=O)(=O)c2ccccc2Cl)CC1` [Example 30, 1-(2-Chloro-benzenesulfonyl)-4-fluoro-piperidine-4-carboxylic acid (4-trifluoromethoxy-phenyl)-amide], the negative logarithm of the IC50 (pIC50) was 6.74. Then `Cc1ccc(S(=O)(=O)N2CCC(C)(C(=O)Nc3ccc(OC(F)(F)F)cc3)CC2)cc1` [Example 31, 4-Methyl-1-(toluene-4-sulfonyl)-piperidine-4-carboxylic acid (4-trifluoromethoxy-phenyl)-amide], with 6.32. Then `Cc1ccc(S(=O)(=O)N2CCC(C(=O)Nc3ccc(OC(C)(C)C(F)(F)F)cc3)CC2)cc1` [Example 33, 1-(Toluene-4-sulfonyl)-piperidine-4-carboxylic acid [4-(2,2,2-trifluoro-1,1-dimethyl-ethoxy)-phenyl]-amide], with 6.89; and `CCn1nc(NC(=O)C2CCN(S(=O)(=O)c3ccccc3)CC2)cc1C(F)(F)F` [Example 35, 1-Benzenesulfonyl-piperidine-4-carboxylic acid (1-ethyl-5-trifluoromethyl-1H-pyrazol-3-yl)-amide], with 5.95. Then `O=C(Nc1ccc(OC(F)(F)F)cc1)C1CCN(S(=O)(=O)N2CCOCC2)CC1` [Example 37, 1-(Morpholine-4-sulfonyl)-piperidine-4-carboxylic acid (4-trifluoromethoxy-phenyl)-amide], with 6.22; and `O=C(Nc1ccc(OC(F)(F)F)cc1)C1CCN(S(=O)(=O)c2ccccc2Cl)CC1` [Example 38, 1-(2-Chloro-benzenesulfonyl)-piperidine-4-carboxylic acid (4-trifluoromethoxy-phenyl)-amide], with 7.70. As to `CC(C)Oc1ccc(NC(=O)C2CCN(S(=O)(=O)c3ccccc3Cl)CC2)cc1` [Example 39, 1-(2-Chloro-benzenesulfonyl)-piperidine-4-carboxylic acid (4-isopropoxy-phenyl)-amide], the negative-log IC50 (pIC50) is 7.40. Regarding `Cc1ccc(S(=O)(=O)N2CCC(F)(C(=O)Nc3ccc(C(C)C)cc3)CC2)cc1` [Example 41, 4-Fluoro-1-(toluene-4-sulfonyl)-piperidine-4-carboxylic acid (4-isopropyl-phenyl)-amide], the pIC50 was 6.49.

Regarding `O=C(Nc1ccc(OC(F)(F)F)cc1)C1CCN(S(=O)(=O)c2ccccc2)CC1` [Example 46, 1-Benzenesulfonyl-piperidine-4-carboxylic acid (4-trifluoromethoxy-phenyl)-amide], the pIC50 was 7.40.

Consider `CC(C)Oc1ccc(NC(=O)C2CCN(S(=O)(=O)c3ccccc3)CC2)cc1` [Example 47, 1-Benzenesulfonyl-piperidine-4-carboxylic acid (4-isopropoxy-phenyl)-amide], for which the negative logarithm of the IC50 (pIC50) was 7.15.

With `COc1ccc(S(=O)(=O)N2CCC(C(=O)Nc3ccc(OC(F)(F)F)cc3)CC2)cc1` [Example 48, 1-(4-Methoxy-benzenesulfonyl)-piperidine-4-carboxylic acid (4-trifluoromethoxy-phenyl)-amide], the pIC50 is 7.40.

Broadly, the pIC50 is the negative decadic logarithm of the IC50, by convention in mol/L.
